Experimental data from patent US20140045746A1 (Merck Sharp & Dohme Corp., priority 2012, published 2014).

How the values were obtained:
hGPR40 [1] = biological target: T1, hGPR40 (Homo sapiens, UniProt O14842); assay: GPR40 FLIPR assay (agonist-induced calcium mobilization); format: cell-based; set-up: expressed in transfected cells; host or cells: CHO cells stably expressing NFAT BLA (beta-lactamase); conditions: GPR40/CHO NFAT BLA cells;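 note: calcium mobilization in the cells read as fluorescence of fluo-4 AM loaded cells on FLIPR after compound addition, cells preloaded with dye 100 min at room temperature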
Description: Human and mouse GPR40 stable cell-lines were generated in CHO cells stably expressing NFAT BLA (Beta-lactamase). […] The expression plasmids were transfected using lipofectamine (Life Technologies) following manufacturer's instructions. Stable cell-lines were generated following drug selection.
FLIPR (Fluorimetric Imaging Plate Reader, Molecular Devices) assays were performed to measure agonist-induced calcium mobilization of the stable clones. For the FLIPR assay, one day before assay, GPR40/CHO NFAT BLA cells were seeded into black-wall-clear-bottom 384-well plates (Costar) at 1.4×10e4 cells/20 μL medium/well. The cells were incubated with 20 μl/well of the assay buffer (HBSS, 0.1% BSA, 20 mM HEPES, 2.5 mM probenecid, pH 7.4) containing 8 μM fluo-4, AM, 0.08% pluronic acid at room temperature for 100 minutes. Fluorescence output was measured using FLIPR. Compounds were dissolved in DMSO and diluted to desired concentrations with assay buffer. 13.3 μL/well of compound solution was added.

hGPR40 [2] = biological target: T1, hGPR40; assay: GPR40 Inositol Phosphate Turnover (IP1) Assay; format: cell-based; set-up: expressed in transfected cells; host or cells: HEK cells stably expressing the aequorin reporter; conditions: HEK cells stably expressing human GPR40; 0% serum; read-out: hGPR40 IP1 EC50 (0% serum)
Description: A human GPR40 stable cell-line was generated in HEK cells stably expressing the aequorin expressing reporter.
The assay is performed in 96-well format. HEK cells stably expressing human GPR^40 are plated to be 60-80% confluent within 72 h. After 72 h, the plates are aspirated and the cells washed with inositol-free DMEM (ICN). The wash media is replaced with 150 μL of 3H-inositol labeling media (inositol-free media containing 0.4% human albumin or 0.4% mouse albumin, 1× pen/strep antibiotics, glutamine, 25 mM HEPES to which is added 3H-myo-inositol NEN #NET114A 1mCi/mL, 25 Ci/mmol diluted 1:150 in loading media with a final specific radioactivity of 1 μCi/150 μL). Alternatively, the human and mouse albumin can be added after the overnight labeling step before the addition of LiCl.
The assay is typically run the next day after 18 h labeling. On the day of the assay, 5 μL, of 300 mM LiCl is added to all wells and incubated at 37 degrees for 20 min. 0.75 μL of 200× compounds are added and incubated with the cells for 60 min at 37 degrees. The media is then aspirated off and the assay terminated with the addition of 60 nI, 10 mM formic acid. The cells are lysed for 60 min at room temperature. 15-30 nI, of lysate is mixed with 70 mL/1 mg YSi SPA beads (Amersham) in clear bottom Isoplates. The plates are shaken for 2 h at room temperature. Beads are allowed to settle and the plates are counted in the Wallac Microbeta.

T1 sequence (O14842 whole entry): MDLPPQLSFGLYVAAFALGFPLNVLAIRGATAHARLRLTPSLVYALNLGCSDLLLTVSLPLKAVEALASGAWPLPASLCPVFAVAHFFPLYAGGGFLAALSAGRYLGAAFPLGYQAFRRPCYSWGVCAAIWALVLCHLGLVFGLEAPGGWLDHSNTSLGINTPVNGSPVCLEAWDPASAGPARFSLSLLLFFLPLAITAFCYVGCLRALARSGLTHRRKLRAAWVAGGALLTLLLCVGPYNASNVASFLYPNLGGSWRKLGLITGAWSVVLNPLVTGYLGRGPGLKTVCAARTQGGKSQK

Row | SMILES | EC50 (hGPR40 [1]) [nM] | EC50 (hGPR40 [2]) [nM]
1 | Cc1cc(OCCCS(C)(=O)=O)nc(C)c1-c1cccc(COc2cc3c(cn2)[C@H]2[C@@H](C3)[C@@H]2C(=O)O)c1 [Compound 23-11, (5aR,6S,6aS)-3-((3-(2,4-dimethyl-6-(3-(methylsulfonyl)propoxy)pyridin-3-yl)benzyl)oxy)-5,5a, 6,6a-tetrahydrocyclo propa[4,5]cyclopenta [1,2-c]pyridine-6-carboxylic acid] | 50 | 25
2 | Cc1cc(OCCCS(C)(=O)=O)nc(C)c1-c1ccc(F)c(COc2cc3c(cn2)[C@H]2[C@@H](C3)[C@@H]2C(=O)O)c1 [Compound 23-12, (5aR,6S,6aS)-3-((5-(2,4-dimethyl-6-(3-(methylsulfonyl)propoxy)pyridin-3-yl)-2-fluorobenzyl)oxy)-5,5a,6,6a-tetrahydrocyclopropa [4,5]cyclopenta[1,2-c] pyridine-6-carboxylic acid] | 35 | 12
3 | Cc1nc(OCCCS(C)(=O)=O)nc(C)c1-c1ccc(F)c(COc2cc3c(cn2)C2C(C3)C2C(=O)O)c1 (stereo not shown) [Compound 23-13, 3-((5-(4,6-dimethyl-2-(3-(methylsulfonyl)propoxy)pyrimidin-5-yl)-2-fluorobenzyl)-oxy)-5,5a,6,6a-tetrahydrocyclopropa [4,5]cyclopenta[1,2-c]pyridine-6-carboxylic acid] | 77 | 110
4 | Cc1nc(OCCCS(C)(=O)=O)sc1-c1ccc(F)c(COc2cc3c(cn2)C2C(C3)C2C(=O)O)c1 (stereo not shown) [Compound 23-14, 3-((2-fluoro-5-(4-methyl-2-(3-(methylsulfonyl)-propoxy)thiazol-5-yl)-benzyl)oxy)-5,5a,6,6a-tetrahydrocyclopropa [4,5]cyclopenta[1,2-c] pyridine-6-carboxylic acid] | 18 | 34
5 | Cc1nc(OCCCN2CCCC2=O)ccc1-c1ccc(F)c(COc2cc3c(cn2)C2C(C3)C2C(=O)O)c1 (stereo not shown) [Compound 23-15, 3-((2-fluoro-5-(2-methyl-6-(3-(2-oxopyrrolidin-1-yl)propoxy)pyridin-3-yl)benzyl)oxy)-5,5a,6,6a-tetahydrocyclopropa[4,5] cyclopenta[1,2-c]pyridine-6-carboxylic acid] | 38 | 27
6 | CS(=O)(=O)CCCOc1cc(OC(F)F)c(-c2ccc(F)c(COc3cc4c(cn3)[C@H]3[C@@H](C4)[C@@H]3C(=O)O)c2)cn1 [Compound 23-17, (5aR,6S,6aS)-3-((5-(4-(difluoro-methoxy)-6-(3-(methylsulfonyl)propoxy)pyridin-3-yl)-2-fluorobenzyl)-oxy)-5,5a,6,6a-tetrahydrocyclopropa [4,5]cyclopenta[1,2-c] pyridine-6-carboxylic acid] | 58 | 82
7 | Cc1nc(OCC(F)(F)C(F)(F)F)ccc1-c1ccc(F)c(COc2cc3c(cn2)C2C(C3)C2C(=O)O)c1 (stereo not shown) [Compound 23-18, 3-((2-fluoro-5-(2-methyl-6-(2,2,3,3,3-pentafluoro-propoxy)pyridin-3-yl)-benzyl)oxy)-5,5a,6,6a-tetra-hydrocyclopropa[4,5] cyclopenta[1,2-c]pyridine-6-carboxylic acid] | 10 | 56
8 | Cc1nc(OCCCS(C)(=O)=O)ccc1-c1ccc(F)c(CNc2cc3c(cn2)C2C(C3)C2C(=O)O)c1 (stereo not shown) [Compound 24-4, 3-((2-fluoro-5-(2-methyl-6-(3-(methylsulfonyl)propoxy)pyridin-3-yl)benzyl)amino)-5,5a,6,6a-tetrahydrocyclopropa[4,5]cyclopenta[1,2-c]pyridine-6-carboxylic acid] | 96 | 90
9 | O=C(O)[C@H]1[C@@H]2Cc3cc(OCc4cc(Oc5ccccc5C(F)(F)F)ccc4F)ncc3[C@@H]21 [Compound 25-2, 4-[2-Fluoro-5-(2-trifluoromethyl-phenoxy)-benzyloxy]-1,1a,6,6a-tetrahydro-3-aza-cyclopropa[a]indene-1-carboxylic acid] | 35 | 56
10 | O=C(O)[C@H]1[C@@H]2Cc3cc(OCc4cc(Oc5ccccc5)ccc4F)ncc3[C@@H]21 [Compound 25-3, 4-(2-Fluoro-5-phenoxy-benzyloxy)-1,1a, 6,6a-tetrahydro-3-aza-cyclopropa [a]indene-1-carboxylic acid] | 34 | 85
11 | O=C(O)[C@H]1[C@@H]2Cc3cc(OCc4cc(Oc5ccc(C(F)(F)F)cc5Cl)ccc4F)ncc3[C@@H]21 [Compound 25-4, 4-[5-(2-Chloro-4-trifluoromethyl-phenoxy)-2-fluoro-benzyloxy]-1,1a, 6,6a-tetrahydro-3-aza-cyclopropa [a]indene-1-carboxylic acid] | 49 | 300
12 | Cc1cccc(C)c1-c1ccc(F)c(COc2cc3c(cn2)C2C(C3)C2C(=O)O)n1 (stereo not shown) [Compound 26-7, 3-((6-(2,6-dimethylphenyl)-3-fluoropyridin-2-yl)methoxy)-5,5a,6,6a-tetrahydrocyclopropa[4,5]cyclopenta[1,2-c]pyridine-6-carboxylic acid] | 42 | 120
13 | Cc1cccc(C)c1-c1cc(COc2cc3c(cn2)C2C(C3)C2C(=O)O)c(F)cn1 (stereo not shown) [Compound 26-8, 3-((2-(2,6-dimethyl-phenyl)-5-fluoropyridin-4-yl)methoxy)-5,5a,6,6a-tetrahydrocyclopropa [4,5]cyclopenta[1,2-c]pyridine-6-carboxylic acid] | 28 | 100
14 | CS(=O)(=O)CCCOc1ccc(-c2ccc(F)c(COc3cc4c(cn3)[C@H]3[C@@H](C4)[C@@H]3C(=O)O)n2)c(C(F)(F)F)c1 [Compound 26-9, (5aR,6S,6aS)-3-((3-fluoro-6-(4-(3-(methyl-sulfonyl)-propoxy)-2-(trifluoromethyl)-phenyl)pyridin-2-yl)methoxy)-5,5a,6,6a-tetrahydrocyclo-propa[4,5]cyclopenta [1,2-c]pyridine-6-carboxylic acid] | 70 | 53
15 | Cc1nc(N2CCN(S(C)(=O)=O)CC2)ccc1-c1ccc(F)c(COc2cc3c(cn2)[C@H]2[C@@H](C3)[C@@H]2C(=O)O)n1 [Compound 26-10, (5aR,6S,6aS)-3-((5-fluoro-2′-methyl-6′-(4-(methylsulfonyl)-piperazin-1-yl)-[2,3′-bipyridin]-6-yl)methoxy)-5,5a,6,6a-tetrahydrocyclo-propa[4,5]cyclopenta [1,2-c]pyridine-6-carboxylic acid] | 90 | 300
16 | Cc1cccc(C)c1-c1cccc(COc2cc3c(cn2)C2[C@@H](C3)[C@@H]2C(=O)O)c1C (stereo partly shown) [Compound 27-5, 4-(2,2′,6′-Trimethyl-biphenyl-3-ylmethoxy)-1,1a,6,6a-tetrahydro-3-aza-cyclopropa[a]indene-1-carboxylic acid] | 8.1 | 6.7
17 | Cc1c(COc2cc3c(cn2)C2C(C3)C2C(=O)O)cccc1-c1ccccc1C(F)(F)F (stereo not shown) [Compound 27-6, 3-((2-methyl-2′-(trifluoro-methyl)-[1,1′-biphenyl]-3-yl)methoxy)-5,5a,6,6a-tetrahydrocyclopropa[4,5]-cyclopenta[1,2-c]pyridine-6-carboxylic acid] | 30 | 85
18 | Cc1cc(OCCCC(C)(C)C#N)cc(C)c1-c1cccc(COc2cc3c(cn2)C2[C@@H](C3)[C@@H]2C(=O)O)c1 (stereo partly drawn) [Compound 28-6, (5aR,6S,6aR)-3-((4′-((4-cyano-4-methylpentyl)oxy)-2′,6′-dimethyl-[1,1′-biphenyl]-3-yl)methoxy)-5,5a,6,6a-tetrahdrocyclopropa[4,5]cyclopenta[1,2-c]pyridine-6-carboxylic acid] | 24 | 66
19 | Cc1cc(O[C@H]2C[C@@](C)(C#N)C2)cc(C)c1-c1cccc(COc2cc3c(cn2)C2[C@@H](C3)[C@@H]2C(=O)O)c1 (stereo partly drawn) [Compound 29-7, (5aR,6S,6aR)-3-((4′-((1s,3s)-3-cyano-3-methylcyclobutoxy)-2′,6′-dimethyl-[1,1′-biphenyl]-3-yl)methoxy)-5,5a,6,6a-tetrahydrocyclopropa[4,5]cyclopenta[1,2-c]pyridine-6-carboxylic acid] | 54 | 21
20 | Cc1cc(OCCCS(C)(=O)=O)cc(C)c1-c1ccc(F)c(C(C)Oc2cc3c(cn2)[C@H]2[C@@H](C3)[C@@H]2C(=O)O)c1 (stereo partly drawn) [Compound 30-5, (5aR,6S,6aS)-3-(1-(4-fluoro-2′,6′-dimethyl-4′-(3-(methylsulfonyl)propoxy)-[1,1′-biphenyl]-3-yl)ethoxy)-5,5a,6,6a-tetrahydrocyclopropa[4,5]cyclopenta[1,2-c]pyridine-6-carboxylic acid] | 45 | 300
21 | Cc1nc(N2CC(CS(C)(=O)=O)C2)ccc1-c1ccc(F)c(COc2cc3c(cn2)[C@H]2[C@@H](C3)[C@@H]2C(=O)O)c1 [Compound 31-8] | 51 | 28
22 | Cc1nc(N2CCC(CS(C)(=O)=O)C2)ccc1-c1ccc(F)c(COc2cc3c(cn2)C2C(C3)C2C(=O)O)c1 (stereo not shown) [Compound 31-9, 3-((2-fluoro-5-(2-methyl-6-(3-((methylsulfonyl)-methyl)pyrrolidin-1-yl)pyridin-3-yl)benzyl)oxy)-5,5a,6,6a-tetrahydrocyclopropa[4,5]cyclopenta[1,2-c]pyridine-6-carboxylic acid] | 76 | 69
23 | Cc1nc(N2CCOCC2)nc(C)c1-c1ccc(F)c(COc2cc3c(cn2)C2C(C3)C2C(=O)O)c1 (stereo not shown) [Compound 31-10, 3-((5-(4,6-dimethyl-2-morpholinopyrimidin-5-yl)-2-fluorobenzyl)oxy)-5,5a,6,6a-tetrahydrocyclopropa[4,5]cyclopenta[1,2-c]pyridine-6-carboxylic acid] | 86 | 45
